We go through four molecules from patent publication US7179823B1, “5-membered n-heterocyclic compounds with hypoglycemic and hypolipidemic activity” (Takeda Pharmaceutical Company Limited, priority 1999, dated 2007).

Like-named read-outs stand apart in the source and are kept apart here.

One series concerns the target T1, PPARγ-RXRα heterodimer (Homo sapiens, UniProt P37231).
T1 construct: expressed in transfected cells; host or cells: CHO-K1
T1 sequence (P37231 1-477 isoform P37231-2): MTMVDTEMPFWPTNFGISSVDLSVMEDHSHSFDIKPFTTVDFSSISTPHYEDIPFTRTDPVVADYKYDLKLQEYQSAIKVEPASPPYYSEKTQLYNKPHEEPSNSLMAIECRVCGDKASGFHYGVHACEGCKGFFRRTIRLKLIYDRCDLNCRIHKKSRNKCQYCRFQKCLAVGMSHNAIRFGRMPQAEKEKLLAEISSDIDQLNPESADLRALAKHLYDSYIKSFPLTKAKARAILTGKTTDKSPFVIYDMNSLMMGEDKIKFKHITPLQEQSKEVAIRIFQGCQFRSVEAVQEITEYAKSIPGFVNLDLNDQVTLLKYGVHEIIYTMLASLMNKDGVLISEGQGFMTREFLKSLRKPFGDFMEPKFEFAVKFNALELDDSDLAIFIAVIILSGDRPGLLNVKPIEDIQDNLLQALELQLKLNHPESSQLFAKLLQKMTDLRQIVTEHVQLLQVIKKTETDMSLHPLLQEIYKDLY
T1 sequence (P19793 1-462 partner): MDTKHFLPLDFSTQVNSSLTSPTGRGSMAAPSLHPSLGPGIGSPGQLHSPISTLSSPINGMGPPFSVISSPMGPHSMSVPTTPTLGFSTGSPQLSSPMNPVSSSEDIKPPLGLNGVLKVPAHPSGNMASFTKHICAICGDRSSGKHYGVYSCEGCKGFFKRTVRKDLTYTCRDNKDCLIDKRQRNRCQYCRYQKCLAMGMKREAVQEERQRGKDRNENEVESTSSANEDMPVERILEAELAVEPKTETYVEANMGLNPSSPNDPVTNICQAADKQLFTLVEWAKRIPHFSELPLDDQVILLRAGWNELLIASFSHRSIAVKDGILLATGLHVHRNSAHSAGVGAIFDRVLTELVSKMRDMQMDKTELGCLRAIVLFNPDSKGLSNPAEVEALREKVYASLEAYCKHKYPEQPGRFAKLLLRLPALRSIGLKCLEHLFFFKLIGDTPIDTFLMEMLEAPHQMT
Kind of series: PPARγ-RXRα heterodimer ligand activity (luciferase reporter, PPARγ:RXRα:4ERPP/CHO-K1 cells). It is filed as cell-based. Particulars: 48 hours, concentration for 50% of the maximum fold induction. As for the experimental part:
(PPARγ-RXRα Heterodimer Ligand Activity)
A PPARγ:RXRα:4ERPP/CHO-K1 cells obtained in Reference Example 5 described later were cultured in HAM F12 medium (produced by NISSUI SEIYAKU) containing 10% Fetal bovine serum (produced by Life Technologies, Inc., USA) and then inoculated to a 96-well white plate (produced by Corning Costar Corporation, USA) at the density of 2×10^4 cells/well, and cultured in a CO2 gas incubator at 37° C. overnight.
After washing the 96 well white plate with PBS (Phosphate-buffered saline), 90 μl of HAM F12 medium containing 0.1% fatty acid-free bovine serum albumin (BSA) and 10 μl of test compound were added, which was cultured in a CO2 gas incubator at 37° C. for 48 hours. After removing the medium, 40 μl of PIKKAGENE 7.5 (produced by Wako Pure Chemical Industries, Ltd.) was added. After stirring, the luciferase activity was determined using Lumistar (produced by BMG Labtechnologies GmbH, Germany).
A fold induction was calculated based on the luciferase activity of each test compound by taking the luciferase activity in the non-treatment group as 1. The values of the test compound concentration and the fold induction were analyzed using PRISM 2.01 (produced by GraphPad Software Inc. USA) to calculate the EC50 values, the effective concentration of a test compound for 50% of the maximum fold induction.
(Introduction of Human PPARγ- and RXRα-Expressing Plasmid and Reporter Plasmid into CHO-K1 Cell and Establishment of Expressed Cell)
After a CHO-K1 cell cultured in a 750 ml tissue culture flask (produced by Corning Costar Corporation, USA) containing HAM F12 medium (produced by NISSUI SEIYAKU) supplemented with 10% Fetal Bovine Serum (produced by Life Technologies, Inc., USA) was scraped by treating with 0.5 g/L trypsin-0.2 g/L EDTA (ethylenediaminetetraacetic acid) (produced by Life Technologies, Inc., USA), the cell was washed with PBS (phosphate-buffered saline) (produced by Life Technologies, Inc., USA), centrifuged (1000 rpm, 5 minutes), and then suspended in PBS. Subsequently, a DNA was introduced into the cell under the condition shown below using GENE PULSER (produced by Bio-Rad Laboratories, USA).
Namely, to a cuvette having a 0.4 cm gap, added were 8×10^6 cells and 10 μg of plasmid pVgRXR2-hPPAR γ obtained in Reference Example 3 and 10 μg of reporter plasmid pGL3-4ERPP-TK neo obtained in Reference Example 4, which was subjected to electroporation at the voltage of 0.25 kV under the capacitance of 960 μF. Subsequently, the cell was transferred into a HAM F12 medium containing 10% Fetal Bovine Serum and cultured for 24 hours and then the cell was scraped again and centrifuged, and then suspended in HAM F12 medium containing 10% Fetal Bovine Serum supplemented with 500 μg/ml of GENETICIN (produced by Life Technologies, Inc., USA) and 250 μg/ml of ZEOCIN (produced by Invitrogen, USA) and diluted to the density of 10^4 cells/ml upon inoculation to a 96-well plate (produced by Corning Costar Corporation, USA), which was cultured in a CO2 gas incubator at 37° C., whereby obtaining a GENETICIN- and ZEOCIN-resistant transformant.
Subsequently, after the transformant cell line thus obtained was cultured in a 24-well plate (produced by Corning Costar Corporation, USA), selected was a cell line in which the luciferase was expressed and induced, i.e., PPARγ:RXRα:4ERPP/CHO-K1 cell by addition of 10 μM pioglitazone hydrochloride.

The subject of another series is KKA^y mice. Kind of series: Hypoglycemic and hypolipidemic actions in mice. It counts as in vivo. Particulars: Mus musculus, po, 96 h, four days; for inhibition in vivo at 0.005 %: 0.005% in powdery diet; for inhibition in vivo at 0.001 %: 0.001% in powdery diet. An excerpt:
Hypoglycemic and Hypolipidemic Actions in Mice
Test compounds were mixed in a powdery diet (CE-2, Japan Clea) at the concentration of 0.01% (compounds of Examples 12, 30, 89, 186), 0.005% (compounds of Examples 7, 80, 82, 181, 182, 184, 256, 262, 283), 0.001% (compounds of Examples 9, 104, 110, 155, 156, 160, 167, 169, 172, 174, 176, 189), or 0.0003% (compounds of Examples 38, 40, 44), and freely given to KKA^y mice (9 to 12 weeks old, 5 mice in a group), a model of obese and type 2 diabetes mellitus, for four days. During this period, water was given freely. Blood was sampled from orbital venous plexus, and glucose and triglyceride levels in plasma separated from blood were determined enzymatically using L type Wako Glu2 (Wako Pure Chemical Industries, Ltd.) or L type Wako TG•H (Wako Pure Chemical Industries, Ltd.), respectively.
In the Table, the value of each treatment group is represented as percent reduction compared with the non-treatment group.

Where [1] appears, read: percent reduction of plasma glucose compared with the non-treatment group, read-out: Hypoglycemic action (%).
Setting [2] is: percent reduction of plasma triglyceride compared with the non-treatment group, read-out: Hypolipidemic action (%).

`Cc1oc(-c2ccco2)nc1COc1ccc(Cn2cc(CCC(=O)O)c(-c3ccccc3)n2)cc1` [Example 80, 3-[1-[4-[2-(2-furyl)-5-methyl-4-oxazolylmethoxy]benzyl]-3-phenyl-1H-pyrazol-4-yl]propionic acid] yielded a melting point of 152 to 153 °C. For the same molecule, the EC50 at PPARγ-RXRα heterodimer amounted to 2.5 nM. Besides, in the series on KKA^y mice (setting [1]), the inhibition in vivo at 0.005 % came to 42%. Moreover, the inhibition in vivo at 0.005 % in the series on KKA^y mice (setting [2]) came out at 22%.
Take `Cc1oc(-c2cccs2)nc1COc1ccc(Cn2cc(CCC(=O)O)c(-c3ccccc3)n2)cc1` [Example 82, 3-[1-[4-[5-methyl-2-(2-thienyl)-4-oxazolylmethoxy]benzyl]-3-phenyl-1H-pyrazol-4-yl]propionic acid]: the melting point was in the range of 159 to 160 °C. The same molecule came in with an EC50 on PPARγ-RXRα heterodimer of 1.4 nM. Further, in the series on KKA^y mice (setting [1]), the inhibition in vivo at 0.005 % was 50%. Further, the inhibition in vivo at 0.005 % in the series with KKA^y mice (setting [2]) came out at 58%.
For the molecule `CCCc1nn(Cc2ccc(OCc3nc(-c4ccccc4)oc3C)cc2)cc1CCC(=O)O` [Example 110, 3-[1-[4-(5-methyl-2-phenyl-4-oxazolylmethoxy)benzyl]-3-propyl-1H-pyrazol-4-yl]propionic acid], the melting point was 153 to 154 °C. Further, a half-maximal effect at PPARγ-RXRα heterodimer (EC50) was put at 3.5 nM. Moreover, the inhibition in vivo at 0.001 % with KKA^y mice (setting [1]) is 50%. For the same molecule, the inhibition in vivo at 0.001 % in the series on KKA^y mice (setting [2]) came out at 70%.
`CCOc1nn(Cc2ccc(OCc3cn(-c4ccccn4)nc3C)cc2)cc1CCC(=O)O` [Example 256, 3-[3-ethoxy-1-[4-(3-methyl-1-(2-pyridyl)-1H-pyrazol-4-ylmethoxy]benzyl]-1H-pyrazol-4-yl]propionic acid]: the melting point was in the range of 126 to 127 °C. This molecule returned an EC50 at PPARγ-RXRα heterodimer of 53 nM. Moreover, in the series on KKA^y mice (setting [1]), the inhibition in vivo at 0.005 % was determined as 57%. For the same molecule, in the series with KKA^y mice (setting [2]), the inhibition in vivo at 0.005 % amounted to 16%.
